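Growth conditions: 96-well plates. Treatment: test compound, 48 hours, 5 concentrations. Analysis: linear interpolation between bracketing concentrations; unreached endpoints set to highest concentration. At the GI50, growth is halved.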 Active and inactive are the calls of the source. No stated cut-off is given here; in the data, active = GI50 up to about 1.1 µM and inactive = higher.
Assays:
Test in all cases: inhibition of tumour cell growth, NCI panel, 48 h
A498 = test system: A498
SF-539 = test system: SF-539
NCI/ADR-RES = test system: NCI/ADR-RES
M14 = test system: M14
HCT-15 = test system: HCT-15
786-0 = test system: 786-0
A549 = test system: A549
SNB-75 = test system: SNB-75
OVCAR-4 = test system: OVCAR-4
NCI-H460 = test system: NCI-H460
SNB-19 = test system: SNB-19
SF-268 = test system: SF-268
CCRF-CEM = test system: CCRF-CEM
COLO 205 = test system: COLO 205
KM12 = test system: KM12
K562 = test system: K562
DU-145 = test system: DU-145
HCC 2998 = test system: HCC 2998
HCT-116 = test system: HCT-116
MDA-MB-435 = test system: MDA-MB-435
EKVX = test system: EKVX
T47D = test system: T47D
UACC-257 = test system: UACC-257
SW-620 = test system: SW-620
UACC-62 = test system: UACC-62
HOP-92 = test system: HOP-92
MDA-N = test system: MDA-N
SR = test system: SR
OVCAR-3 = test system: OVCAR-3
BT-549 = test system: BT-549
SK-MEL-28 = test system: SK-MEL-28
SN12C = test system: SN12C
NCI-H23 = test system: NCI-H23
MOLT-4 = test system: MOLT-4
SK-OV-3 = test system: SK-OV-3
UO-31 = test system: UO-31
RPMI-8226 = test system: RPMI-8226
ACHN = test system: ACHN
NCI-H522 = test system: NCI-H522
CAKI-1 = test system: CAKI-1
OVCAR-8 = test system: OVCAR-8
OVCAR-5 = test system: OVCAR-5
RXF 393 = test system: RXF 393
HOP-62 = test system: HOP-62
SF-295 = test system: SF-295
TK-10 = test system: TK-10
IGROV-1 = test system: IGROV-1
HL-60 = test system: HL-60
NCI-H226 = test system: NCI-H226
MCF7 = test system: MCF7
PC-3 = test system: PC-3
LOX IMVI = test system: LOX IMVI
SK-MEL-2 = test system: SK-MEL-2
U-251 = test system: U-251
MDA-MB-231 = test system: MDA-MB-231
SK-MEL-5 = test system: SK-MEL-5
HT-29 = test system: HT-29

SMILES: Cc1n[nH]c(=O)n1/N=C/c1ccc(F)cc1
- GI50 (A498): 90.8 µM (inactive)
- GI50 (SF-539): > 100 µM (inactive)
- GI50 (NCI/ADR-RES): > 100 µM (inactive)
- GI50 (M14): > 100 µM (inactive)
- GI50 (HCT-15): > 100 µM
- GI50 (786-0): > 100 µM (inactive)
- GI50 (A549): > 100 µM (inactive)
- GI50 (SNB-75): 65.2 µM (inactive)
- GI50 (OVCAR-4): > 100 µM (inactive)
- GI50 (NCI-H460): > 100 µM (inactive)
- GI50 (SNB-19): > 100 µM (inactive)
- GI50 (SF-268): > 100 µM (inactive)
- GI50 (CCRF-CEM): > 100 µM (inactive)
- GI50 (COLO 205): > 100 µM (inactive)
- GI50 (KM12): > 100 µM (inactive)
- GI50 (K562): > 100 µM (inactive)
- GI50 (DU-145): > 100 µM (inactive)
- GI50 (HCC 2998): > 100 µM (inactive)
- GI50 (HCT-116): > 100 µM (inactive)
- GI50 (MDA-MB-435): > 100 µM (inactive)
- GI50 (EKVX): 92.9 µM (inactive)
- GI50 (T47D): > 100 µM (inactive)
- GI50 (UACC-257): > 100 µM (inactive)
- GI50 (SW-620): > 100 µM (inactive)
- GI50 (UACC-62): > 100 µM (inactive)
- GI50 (HOP-92): > 100 µM (inactive)
- GI50 (MDA-N): > 100 µM (inactive)
- GI50 (SR): > 100 µM (inactive)
- GI50 (OVCAR-3): > 100 µM (inactive)
- GI50 (BT-549): > 100 µM (inactive)
- GI50 (SK-MEL-28): > 100 µM (inactive)
- GI50 (SN12C): > 100 µM (inactive)
- GI50 (NCI-H23): > 100 µM (inactive)
- GI50 (MOLT-4): > 100 µM (inactive)
- GI50 (SK-OV-3): > 100 µM (inactive)
- GI50 (UO-31): > 100 µM (inactive)
- GI50 (RPMI-8226): > 100 µM (inactive)
- GI50 (ACHN): > 100 µM (inactive)
- GI50 (NCI-H522): > 100 µM (inactive)
- GI50 (CAKI-1): > 100 µM (inactive)
- GI50 (OVCAR-8): > 100 µM (inactive)
- GI50 (OVCAR-5): > 100 µM (inactive)
- GI50 (RXF 393): 40.6 µM (inactive)
- GI50 (HOP-62): > 100 µM (inactive)
- GI50 (SF-295): > 100 µM (inactive)

SMILES: CCC[C@@H](O)C[C@@H]1CCC[C@H](C[C@@H](O)CC)N1C
- GI50 (TK-10): > 100 µM (inactive)
- GI50 (IGROV-1): > 100 µM (inactive)
- GI50 (A498): > 100 µM (inactive)
- GI50 (HL-60): > 100 µM (inactive)
- GI50 (NCI-H226): > 100 µM (inactive)
- GI50 (SF-539): > 100 µM (inactive)
- GI50 (NCI/ADR-RES): > 100 µM (inactive)
- GI50 (M14): > 100 µM (inactive)
- GI50 (HCT-15): > 100 µM
- GI50 (786-0): > 100 µM (inactive)
- GI50 (A549): > 100 µM (inactive)
- GI50 (OVCAR-4): > 100 µM (inactive)
- GI50 (SNB-19): > 100 µM (inactive)
- GI50 (SF-268): 17.9 µM (inactive)
- GI50 (CCRF-CEM): > 100 µM (inactive)
- GI50 (COLO 205): > 100 µM (inactive)
- GI50 (KM12): > 100 µM (inactive)
- GI50 (K562): > 100 µM (inactive)
- GI50 (DU-145): > 100 µM (inactive)
- GI50 (MCF7): > 100 µM (inactive)
- GI50 (HCC 2998): > 100 µM (inactive)
- GI50 (PC-3): > 100 µM (inactive)
- GI50 (HCT-116): > 100 µM (inactive)
- GI50 (MDA-MB-435): > 100 µM (inactive)
- GI50 (LOX IMVI): 88.1 µM (inactive)
- GI50 (EKVX): 29.7 µM (inactive)
- GI50 (T47D): > 100 µM (inactive)
- GI50 (UACC-257): > 100 µM (inactive)
- GI50 (SW-620): > 100 µM (inactive)
- GI50 (UACC-62): > 100 µM (inactive)
- GI50 (HOP-92): < 0.01 µM (active)
- GI50 (SK-MEL-2): > 100 µM (inactive)
- GI50 (MDA-N): > 100 µM (inactive)
- GI50 (SR): > 100 µM (inactive)
- GI50 (OVCAR-3): > 100 µM (inactive)
- GI50 (U-251): > 100 µM (inactive)
- GI50 (MDA-MB-231): > 100 µM (inactive)
- GI50 (BT-549): 76.4 µM (inactive)
- GI50 (SK-MEL-28): > 100 µM (inactive)
- GI50 (SK-MEL-5): > 100 µM (inactive)
- GI50 (SN12C): > 100 µM (inactive)
- GI50 (NCI-H23): > 100 µM (inactive)
- GI50 (MOLT-4): > 100 µM (inactive)
- GI50 (SK-OV-3): > 100 µM (inactive)
- GI50 (UO-31): > 100 µM (inactive)
- GI50 (RPMI-8226): > 100 µM (inactive)
- GI50 (ACHN): > 100 µM (inactive)
- GI50 (HT-29): > 100 µM (inactive)
- GI50 (NCI-H522): 11.7 µM (inactive)
- GI50 (CAKI-1): > 100 µM (inactive)
- GI50 (OVCAR-8): > 100 µM (inactive)
- GI50 (OVCAR-5): > 100 µM (inactive)
- GI50 (HOP-62): > 100 µM (inactive)
- GI50 (SF-295): > 100 µM (inactive)
